15 compounds from US20240208992A1, “MACROCYCLES AS CFTR MODULATORS” (Idorsia Pharmaceuticals Ltd, priority 2021, published 2024) can be followed below.

This experiment deals with human F508del-CFTR (Homo sapiens, UniProt P13569, DEL508-508). Briefly: F508del-CFTR cell surface expression (corrector activity), DiscoveRx ß-galactosidase complementation chemiluminescence assay in recombinant U2OS cell line.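 As to all read-outs here: U2OS cells co-expressing ProLink-tagged F508del-CFTR and a membrane-anchored enzyme acceptor, where more surface CFTR restores β-galactosidase activity measured by chemiluminescence.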 Particulars: for EC50: EC50, F508del-CFTR cell surface expression, U2OS cells, 16h compound incubation, geomean values; for Emax: U2OS, in relation to Emax of corrector lumacaftor (=100%), arithmetic mean values.
Sequence of human F508del-CFTR (P13569 with tags, fused parts or gaps DEL508-508): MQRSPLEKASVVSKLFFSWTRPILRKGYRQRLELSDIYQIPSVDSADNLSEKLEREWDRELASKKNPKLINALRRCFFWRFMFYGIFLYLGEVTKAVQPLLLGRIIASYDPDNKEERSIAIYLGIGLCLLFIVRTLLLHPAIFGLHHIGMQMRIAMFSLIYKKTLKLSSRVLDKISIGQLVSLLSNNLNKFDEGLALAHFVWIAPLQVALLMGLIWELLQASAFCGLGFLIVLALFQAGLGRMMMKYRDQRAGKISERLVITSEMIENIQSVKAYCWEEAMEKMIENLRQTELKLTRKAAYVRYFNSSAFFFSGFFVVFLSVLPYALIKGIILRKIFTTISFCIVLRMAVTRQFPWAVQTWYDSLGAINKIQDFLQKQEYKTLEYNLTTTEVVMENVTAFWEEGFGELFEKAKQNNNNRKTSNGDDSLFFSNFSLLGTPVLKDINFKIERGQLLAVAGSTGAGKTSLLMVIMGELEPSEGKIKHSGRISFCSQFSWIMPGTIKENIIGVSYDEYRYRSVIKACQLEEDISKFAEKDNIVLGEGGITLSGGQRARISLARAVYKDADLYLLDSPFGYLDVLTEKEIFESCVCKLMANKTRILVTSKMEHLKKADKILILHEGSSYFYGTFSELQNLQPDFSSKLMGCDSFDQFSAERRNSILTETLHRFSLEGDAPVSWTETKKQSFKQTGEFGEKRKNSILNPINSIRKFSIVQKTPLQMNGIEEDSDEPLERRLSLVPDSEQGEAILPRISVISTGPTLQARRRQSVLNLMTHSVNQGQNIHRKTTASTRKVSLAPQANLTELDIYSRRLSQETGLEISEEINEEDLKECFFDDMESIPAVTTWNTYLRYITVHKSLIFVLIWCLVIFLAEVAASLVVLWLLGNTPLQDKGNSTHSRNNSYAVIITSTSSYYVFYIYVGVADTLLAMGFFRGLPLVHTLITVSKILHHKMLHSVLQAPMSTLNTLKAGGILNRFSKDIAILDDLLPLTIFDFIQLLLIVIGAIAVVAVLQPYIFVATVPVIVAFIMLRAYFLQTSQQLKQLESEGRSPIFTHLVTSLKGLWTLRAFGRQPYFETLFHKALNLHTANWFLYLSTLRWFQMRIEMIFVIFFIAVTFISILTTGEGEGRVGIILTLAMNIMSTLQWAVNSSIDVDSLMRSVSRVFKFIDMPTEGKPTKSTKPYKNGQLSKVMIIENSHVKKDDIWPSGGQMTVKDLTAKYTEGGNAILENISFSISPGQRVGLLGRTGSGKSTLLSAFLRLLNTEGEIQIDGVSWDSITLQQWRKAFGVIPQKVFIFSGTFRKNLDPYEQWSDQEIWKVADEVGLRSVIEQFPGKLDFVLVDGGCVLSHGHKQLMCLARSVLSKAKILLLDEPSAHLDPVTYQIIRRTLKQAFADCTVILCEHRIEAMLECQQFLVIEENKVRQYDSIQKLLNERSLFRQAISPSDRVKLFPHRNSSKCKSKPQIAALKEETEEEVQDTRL

With `COc1cccc(CCNC(=O)[C@@H]2CC(=O)N(C)[C@@H](CC(C)C)C(=O)N3CCN(CC(C)C)C[C@@H]3C(=O)N[C@H](Cc3ccccc3)COc3cccc(OC)c3C(=O)N2)c1` [Example 612, (7S,11S,20R,22aR)-20-benzyl-2,7-diisobutyl-14-methoxy-N-(3-methoxyphenethyl)-8-methyl-6,9,13,22-tetraoxo-1,3,4,6,7,8,9,10,11,12,13,19,20,21,22,22a-hexadecahydro-2H-benzo[p]pyrazino[2,1-f][1]oxa[4,7,10,14]tetraazacycloheptadecine-11-carboxamide], the EC50 (usually the midpoint of the concentration-response curve) amounted to 148 nM and the Emax (usually the maximal effect, on the per cent scale that the assay sets) stood at 298%.
As for `COc1cc(CCNC(=O)[C@@H]2CC(=O)N(C)[C@@H](CC(C)C)C(=O)N3CCN(CC(C)C)C[C@@H]3C(=O)N[C@H](Cc3ccccc3)COc3ccc4ccccc4c3C(=O)N2)cc(OC)c1` [Example 613, (4aR,7R,18S,22S)-7-benzyl-N-(3,5-dimethoxyphenethyl)-3,22-diisobutyl-21-methyl-5,16,20,23-tetraoxo-2,3,4,4a,5,6,7,8,16,17,18,19,20,21,22,23-hexadecahydro-1H-naphtho[1,2-p]pyrazino[2,1-f][1]oxa[4,7,10,14]tetraazacycloheptadecine-18-carboxamide], the EC50 came to 82 nM and the Emax was determined as 312%.
The matching figures for `COc1cccc(CCNC(=O)[C@@H]2CC(=O)N(C)[C@@H](CC(C)C)C(=O)N3CCCC[C@@H]3C(=O)N[C@H](Cc3ccccc3)COc3ccc4nc(C)oc4c3C(=O)N2)c1` [Example 614, (8S,12S,18aR,21R)-21-benzyl-12-isobutyl-N-(3-methoxyphenethyl)-4,11-dimethyl-6,10,13,19-tetraoxo-6,7,8,9,10,11,12,13,16,17,18,18a,19,20,21,22-hexadecahydro-15H-oxazolo[4′,5′:5,6]benzo[1,2-p]pyrido[2,1-f][1]oxa[4,7,10,14]tetraazacycloheptadecine-8-carboxamide]: 484 nM and 317%.
The matching figures for `COc1cccc(CCNC(=O)[C@@H]2CC(=O)N(C)[C@@H](CC(C)C)C(=O)N3CCCC[C@H]3C(=O)N[C@H](Cc3ccccc3)COc3ccc4nc(C)oc4c3C(=O)N2)c1` [Example 615, (8S,12S,18aS,21R)-21-benzyl-12-isobutyl-N-(3-methoxyphenethyl)-4,11-dimethyl-6,10,13,19-tetraoxo-6,7,8,9,10,11,12,13,16,17,18,18a,19,20,21,22-hexadecahydro-15H-oxazolo[4′,5′:5,6]benzo[1,2-p]pyrido[2,1-f][1]oxa[4,7,10,14]tetraazacycloheptadecine-8-carboxamide]: 465 nM and 170%.
Regarding `CC(C)C[C@H]1C(=O)N(C)CC(=O)N[C@H](Cc2ccccc2)COc2cccc(OC(F)F)c2C(=O)N[C@H](C(=O)NCCc2ccc3c(c2)OCO3)CC(=O)N1C` [Example 616, (3R,9S,13S)-N-(2-(benzo[d][1,3]dioxol-5-yl)ethyl)-3-benzyl-16-(difluoromethoxy)-9-isobutyl-7,10-dimethyl-5,8,11,15-tetraoxo-2,3,4,5,6,7,8,9,10,11,12,13,14,15-tetradecahydrobenzo[p][1]oxa[4,7,10,14]tetraazacycloheptadecine-13-carboxamide], the EC50 was 581 nM and the Emax was determined as 92%.
As to `Cc1cc(CCNC(=O)[C@@H]2CC(=O)N(C)[C@@H](CC(C)C)C(=O)N3CCN(CC(C)C)C[C@@H]3C(=O)N[C@H](Cc3ccccc3)COc3ccc4ccccc4c3C(=O)N2)on1` [Example 617, (4aR,7R,18S,22S)-7-benzyl-3,22-diisobutyl-21-methyl-N-(2-(3-methylisoxazol-5-yl)ethyl)-5,16,20,23-tetraoxo-2,3,4,4a,5,6,7,8,16,17,18,19,20,21,22,23-hexadecahydro-1H-naphtho[1,2-p]pyrazino[2,1-f][1]oxa[4,7,10,14]tetraazacycloheptadecine-18-carboxamide], the EC50 is 75 nM and the Emax turned out to be 318%.
The matching figures for `COc1cc(CCNC(=O)[C@@H]2CC(=O)N(C)[C@@H](CC(C)C)C(=O)N3CCN(C(C)C)C[C@@H]3C(=O)N[C@H](Cc3ccccc3)COc3ccc4ccccc4c3C(=O)N2)cc(OC)c1` [Example 618, (4aR,7R,18S,22S)-7-benzyl-N-(3,5-dimethoxyphenethyl)-22-isobutyl-3-isopropyl-21-methyl-5,16,20,23-tetraoxo-2,3,4,4a,5,6,7,8,16,17,18,19,20,21,22,23-hexadecahydro-1H-naphtho[1,2-p]pyrazino[2,1-f][1]oxa[4,7,10,14]tetraazacycloheptadecine-18-carboxamide]: 80 nM and 309%.
Consider `COc1cccc(CCNC(=O)[C@@H]2CC(=O)N(C)[C@@H](CC(C)C)C(=O)N3CCN(CC(C)C)C[C@@H]3C(=O)N[C@H](Cc3ccccc3)COc3ccc4nc(C)oc4c3C(=O)N2)c1` [Example 619, (8S,12S,18aR,21R)-21-benzyl-12,17-diisobutyl-N-(3-methoxyphenethyl)-4,11-dimethyl-6,10,13,19-tetraoxo-6,7,8,9,10,11,12,13,16,17,18,18a,19,20,21,22-hexadecahydro-15H-oxazolo[4′,5′:5,6]benzo[1,2-p]pyrazino[2,1-f][1]oxa[4,7,10,14]tetraazacycloheptadecine-8-carboxamide], for which the EC50 stood at 155 nM and the Emax was 322%.
With `Cc1cc(CCNC(=O)[C@@H]2CC(=O)N(C)[C@@H](CC(C)C)C(=O)N3CCN(CC(C)C)C[C@@H]3C(=O)N[C@H](Cc3ccccc3)COc3ccc4nc(C)oc4c3C(=O)N2)on1` [Example 620, (8S,12S,18aR,21R)-21-benzyl-12,17-diisobutyl-4,11-dimethyl-N-(2-(3-methylisoxazol-5-yl)ethyl)-6,10,13,19-tetraoxo-6,7,8,9,10,11,12,13,16,17,18,18a,19,20,21,22-hexadecahydro-15H-oxazolo[4′,5′:5,6]benzo[1,2-p]pyrazino[2,1-f][1]oxa[4,7,10,14]tetraazacycloheptadecine-8-carboxamide], the EC50 turned out to be 316 nM and the Emax came out at 266%.
With `Cc1cc(CCNC(=O)[C@@H]2CC(=O)N(C)[C@@H](CC(C)C)C(=O)N3CCN(CC(C)C)C[C@H]3C(=O)N[C@H](Cc3ccccc3)COc3ccc4nc(C)oc4c3C(=O)N2)on1` [Example 621, (8S,12S,18aS,21R)-21-benzyl-12,17-diisobutyl-4,11-dimethyl-N-(2-(3-methylisoxazol-5-yl)ethyl)-6,10,13,19-tetraoxo-6,7,8,9,10,11,12,13,16,17,18,18a,19,20,21,22-hexadecahydro-15H-oxazolo[4′,5′:5,6]benzo[1,2-p]pyrazino[2,1-f][1]oxa[4,7,10,14]tetraazacycloheptadecine-8-carboxamide], the EC50 stood at 339 nM and the Emax turned out to be 288%.
The matching figures for `Cc1cc(CCNC(=O)[C@@H]2CC(=O)N(C)[C@@H](CC(C)C)C(=O)N3CCN(CC(C)C)C[C@@H]3C(=O)N[C@H](Cc3ccccc3)COc3cnc4ccccc4c3C(=O)N2)on1` [Example 622, (9S,13S,19aR,22R)-22-benzyl-13,18-diisobutyl-12-methyl-N-(2-(3-methylisoxazol-5-yl)ethyl)-7,11,14,20-tetraoxo-7,8,9,10,11,12,13,14,17,18,19,19a,20,21,22,23-hexadecahydro-16H-pyrazino[2′,1′:6,7][1]oxa[4,7,10,14]tetraazacycloheptadecino[17,16-c]quinoline-9-carboxamide]: 199 nM and 296%.
For the compound `Cc1cc(CCNC(=O)[C@@H]2CC(=O)N(C)[C@@H](CC(C)C)C(=O)N3CCN(C(C)C)C[C@@H]3C(=O)N[C@H](Cc3ccccc3)COc3ccc4ccccc4c3C(=O)N2)on1` [Example 623, (4aR,7R,18S,22S)-7-benzyl-22-isobutyl-3-isopropyl-21-methyl-N-(2-(3-methylisoxazol-5-yl)ethyl)-5,16,20,23-tetraoxo-2,3,4,4a,5,6,7,8,16,17,18,19,20,21,22,23-hexadecahydro-1H-naphtho[1,2-p]pyrazino[2,1-f][1]oxa[4,7,10,14]tetraazacycloheptadecine-18-carboxamide], the EC50 was 248 nM and the Emax came to 349%.
For the compound `Cc1nc2ccc3c(c2o1)C(=O)N[C@H](C(=O)NCCc1cccc(OC(F)F)c1)CC(=O)N(C)[C@@H](CC(C)C)C(=O)N1CCOC[C@@H]1C(=O)N[C@H](Cc1ccccc1)CO3` [Example 625], the EC50 worked out at 781 nM and the Emax came to 186%.
As for `CC(C)C[C@H]1C(=O)N(CCCc2ccccc2)CC(=O)N[C@H](Cc2ccccc2)COc2ccc3ccccc3c2C(=O)N[C@H](C(=O)NCCc2ccc3c(c2)OCO3)CC(=O)N1C` [Example 626, (3S,7S,13R)-N-(2-(benzo[d][1,3]dioxol-5-yl)ethyl)-13-benzyl-7-isobutyl-6-methyl-1,5,8,11-tetraoxo-9-(3-phenylpropyl)-1,2,3,4,5,6,7,8,9,10,11,12,13,14-tetradecahydronaphtho[1,2-p][1]oxa[4,7,10,14]tetraazacycloheptadecine-3-carboxamide], the EC50 was 163 nM and the Emax was 253%.
`CC(C)C[C@H]1C(=O)N2CCOC[C@@H]2C(=O)N[C@H](Cc2ccccc2)COc2cnc3c(F)cccc3c2C(=O)N[C@H](C(=O)NCCc2ccc3c(c2)OCCO3)CC(=O)N1C` [Example 627, (9S,13S,19aR,22R)-22-benzyl-N-(2-(2,3-dihydrobenzo[b][1,4]dioxin-6-yl)ethyl)-3-fluoro-13-isobutyl-12-methyl-7,11,14,20-tetraoxo-7,8,9,10,11,12,13,14,16,17,19,19a,20,21,22,23-hexadecahydro-[1,4]oxazino[3′,4′:6,7][1]oxa[4,7,10,14]tetraazacycloheptadecino[17,16-c]quinoline-9-carboxamide]: the EC50 is 786 nM and the Emax is 395%.
